# Experimental data from US10765114B2, “4-amino-6-(pyridyl and 2-substitutedphenyl)-picolinates and 6-amino-2-(pyridyl and 2-substitutedphenyl)-pyrimidine-4-carboxylates and their use as herbicides” (Dow AgroSciences LLC, priority 2013, dated 2020).
# How the values were obtained:
# Assay in all cases: Post-Emergent Test III (Wheat and Barley)
# SASKR (Russian thistle) = assay type: in vivo, Salsola tragus; conditions: for Visual Growth Reduction (%) 21 Days After Application, SASKR: SASKR Russian thistle (Salsola iberica), post-emergent
# Experimental: (§1) Seeds of the desired test plant species were planted in Sun Gro MetroMix® 306 planting mixture, which typically has a pH of 6.0 to 6.8 and an organic matter content of about 30 percent, in plastic pots with a surface area of 103.2 square centimeters (cm^2). When required to ensure good germination and healthy plants, a fungicide treatment and/or other chemical or physical treatment was applied. The plants were grown for 7-36 days in a greenhouse with an approximate 14 h photoperiod which was maintained at about 18° C. during the day and 17° C. during the night. Nutrients and water were added on a regular basis and supplemental lighting was provided with overhead metal halide 1000-Watt lamps as necessary. The plants were employed for testing when they reached the second or third true leaf stage.
# (§2) A weighed amount, determined by the highest rate to be tested, of each test compound was placed in a 25 mL glass vial and was dissolved in 4 mL of a 97:3 v/v mixture of acetone and DMSO to obtain concentrated stock solutions. […] The concentrated stock solutions obtained were diluted with 20 mL of an aqueous mixture containing acetone, water, isopropyl alcohol, DMSO, Agri-Dex crop oil concentrate, and X-77 surfactant in a 48:39:10:1.5:1.5:0.02 v/v ratio to obtain spray solutions containing the highest application rates. Additional application rates were obtained by serial dilution of 12 mL of the high rate solution into a solution containing 2 mL of 97:3 v/v mixture of acetone and DMSO and 10 mL of an aqueous mixture containing acetone, water, isopropyl alcohol, DMSO, Agri-Dex crop oil concentrate, and X-77 surfactant in a 48:39:10:1.5:1.5:0.02 v/v ratio to obtain ½×, ¼×, ⅛× and 1/16× rates of the high rate. Compound requirements are based upon a 12 mL application volume at a rate of 187 liters per hectare (L/ha). Formulated compounds were applied to the plant material with an overhead Mandel track sprayer equipped with 8002E nozzles calibrated to deliver 187 L/ha over an application area of 0.503 square meters at a spray height of 18 inches (43 cm) above the average plant canopy height. Control plants were sprayed in the same manner with the solvent blank.
# (§3) The treated plants and control plants were placed in a greenhouse as described above and watered by subirrigation to prevent wash-off of the test compounds. After 21 dAYS, the condition of the test plants as compared with that of the untreated plants was determined visually and scored on a scale of 0 to 100 percent where 0 corresponds to no injury and 100 corresponds to complete kill and presented as indicated in Table A.
# (§4) By applying the well-accepted probit analysis as described by J. Berkson in Journal of the American Statistical Society, 48, 565 (1953) and by D. Finney in “Probit Analysis” Cambridge University Press (1952), herbicidal injury of a specific compound at various rates can be used to calculate GR10, GR20, GR50, GR80 and GR90 values, which are defined as growth reduction factors that correspond to the effective dose of herbicide required to provide plant growth reduction (GR) of 10 percent, 20 percent, 50 percent, 80 percent and 90 percent, respectively. Probit analysis was applied to data collected from multiple dose rates of individual compounds utilizing the procedures explained in the following examples. The analysis of those dose rates is captured in the following tables.
# BRSSS = assay type: in vivo; conditions: for Visual Growth Reduction (%) 21 Days After Application, BRSSS: BRSSS oil seed rape (Brassica napus), post-emergent
# Procedure, shortened: (§5)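 GR10-GR90 values were derived by probit analysis of visual injury (0 = no injury, 100 = complete kill versus untreated), rated 21 days after spraying. Two- to three-true-leaf plants were sprayed at 187 L/ha with serial rates (1× to 1/16×) in aqueous acetone/isopropanol/DMSO with crop oil and X-77. Greenhouse conditions were 18 °C day/17 °C night.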
# HORSS = assay type: in vivo; conditions: crop; for Visual Growth Reduction (%) 21 Days After Application, HORSS: HORSS barley (Hordeum vulgare), post-emergent
# Procedure, shortened: as §5
# TRZSS = assay type: in vivo; conditions: crop; for Visual Growth Reduction (%) 21 Days After Application, TRZSS: TRZSS wheat (Triticum aestivum), post-emergent
# Procedure, shortened: as §5
# POLCO (wild buckwheat) = assay type: in vivo, Polygonum convolvulus; conditions: for Visual Growth Reduction (%) 21 Days After Application, POLCO: POLCO wild buckwheat (Polygonum convolvulus), post-emergent
# Experimental: as §1, §2, §3, §4
# KCHSC (kochia) = assay type: in vivo, Kochia scoparia
# Procedure, shortened: as §5
# PAPRH (common poppy) = assay type: in vivo, Papaver rhoeas; conditions: for Visual Growth Reduction (%) 21 Days After Application, PAPRH: PAPRH common poppy (Papaver rhoeas), post-emergent
# Experimental: as §1, §2, §3, §4
compound,measurement,setting,value
Nc1cc(-c2ccc(Cl)c(Cl)c2Cl)nc(C(=O)O)c1Cl [Compound 93],"Visual Growth Reduction (%) 21 Days After Application, SASKR",SASKR (Russian thistle); 17.5 g ai/ha,B (85-94)
same,"Visual Growth Reduction (%) 21 Days After Application, SASKR",SASKR (Russian thistle); 35 g ai/ha,B (85-94)
same,"Visual Growth Reduction (%) 21 Days After Application, SASKR",SASKR (Russian thistle); 70 g ai/ha,B (85-94)
same,"GR50, SASKR","SASKR (Russian thistle); SASKR, growth reduction of 50%, probit analysis, 21 days",1 g ai/ha
same,"GR80, SASKR","SASKR (Russian thistle); SASKR, growth reduction of 80%, probit analysis, 21 days",10 g ai/ha
same,"GR90, SASKR","SASKR (Russian thistle); SASKR, growth reduction of 90%, probit analysis, 21 days",34 g ai/ha
same,"Visual Growth Reduction (%) 21 Days After Application, BRSSS",BRSSS; 17.5 g ai/ha,A (95-100)
same,"Visual Growth Reduction (%) 21 Days After Application, BRSSS",BRSSS; 35 g ai/ha,A (95-100)
same,"Visual Growth Reduction (%) 21 Days After Application, BRSSS",BRSSS; 70 g ai/ha,A (95-100)
same,"GR50, BRSSS","BRSSS; BRSSS, growth reduction of 50%, probit analysis, 21 days",0 g ai/ha
same,"GR80, BRSSS","BRSSS; BRSSS, growth reduction of 80%, probit analysis, 21 days",3 g ai/ha
same,"GR90, BRSSS","BRSSS; BRSSS, growth reduction of 90%, probit analysis, 21 days",11 g ai/ha
same,"Visual Growth Reduction (%) 21 Days After Application, HORSS",HORSS; 17.5 g ai/ha,C (75-84)
same,"Visual Growth Reduction (%) 21 Days After Application, HORSS",HORSS; 35 g ai/ha,B (85-94)
same,"Visual Growth Reduction (%) 21 Days After Application, HORSS",HORSS; 70 g ai/ha,B (85-94)
same,"GR10, HORSS","HORSS; HORSS barley, growth reduction of 10%, probit analysis, 21 days",1 g ai/ha
same,"GR20, HORSS","HORSS; HORSS barley, growth reduction of 20%, probit analysis, 21 days",1 g ai/ha
same,"Visual Growth Reduction (%) 21 Days After Application, TRZSS",TRZSS; 17.5 g ai/ha,C (75-84)
same,"Visual Growth Reduction (%) 21 Days After Application, TRZSS",TRZSS; 35 g ai/ha,B (85-94)
same,"Visual Growth Reduction (%) 21 Days After Application, TRZSS",TRZSS; 70 g ai/ha,B (85-94)
same,"GR10, TRZSS","TRZSS; TRZSS wheat, growth reduction of 10%, probit analysis, 21 days",1 g ai/ha
same,"GR20, TRZSS","TRZSS; TRZSS wheat, growth reduction of 20%, probit analysis, 21 days",1 g ai/ha
same,"Visual Growth Reduction (%) 21 Days After Application, POLCO",POLCO (wild buckwheat); 17.5 g ai/ha,B (85-94)
same,"Visual Growth Reduction (%) 21 Days After Application, POLCO",POLCO (wild buckwheat); 35 g ai/ha,B (85-94)
same,"Visual Growth Reduction (%) 21 Days After Application, POLCO",POLCO (wild buckwheat); 70 g ai/ha,A (95-100)
same,"GR50, POLCO","POLCO (wild buckwheat); POLCO, growth reduction of 50%, probit analysis, 21 days",2 g ai/ha
same,"GR80, POLCO","POLCO (wild buckwheat); POLCO, growth reduction of 80%, probit analysis, 21 days",7 g ai/ha
same,"GR90, POLCO","POLCO (wild buckwheat); POLCO, growth reduction of 90%, probit analysis, 21 days",13 g ai/ha
same,pest or weed control at 17.5 g/ha,"KCHSC (kochia); Bassia scoparia, post-emergence, 504 h, KCHSC kochia (Kochia scoparia), 17.5 g ai/ha, post-emergent, read-out: Visual Growth Reduction (%) 21 Days After Application, KCHSC",85 to 94%
same,pest or weed control at 35 g/ha,"KCHSC (kochia); Bassia scoparia, post-emergence, 504 h, KCHSC kochia (Kochia scoparia), 35 g ai/ha, post-emergent, read-out: Visual Growth Reduction (%) 21 Days After Application, KCHSC",85 to 94%
same,pest or weed control at 70 g/ha,"KCHSC (kochia); Bassia scoparia, post-emergence, 504 h, KCHSC kochia (Kochia scoparia), 70 g ai/ha, post-emergent, read-out: Visual Growth Reduction (%) 21 Days After Application, KCHSC",95 to 100%
same,"GR50, KCHSC","KCHSC (kochia); KCHSC, growth reduction of 50%, probit analysis, 21 days",2 g ai/ha
same,"GR80, KCHSC","KCHSC (kochia); KCHSC, growth reduction of 80%, probit analysis, 21 days",10 g ai/ha
same,"GR90, KCHSC","KCHSC (kochia); KCHSC, growth reduction of 90%, probit analysis, 21 days",27 g ai/ha
same,"Visual Growth Reduction (%) 21 Days After Application, PAPRH",PAPRH (common poppy); 17.5 g ai/ha,C (75-84)
same,"Visual Growth Reduction (%) 21 Days After Application, PAPRH",PAPRH (common poppy); 35 g ai/ha,C (75-84)
same,"Visual Growth Reduction (%) 21 Days After Application, PAPRH",PAPRH (common poppy); 70 g ai/ha,B (85-94)
same,"GR50, PAPRH","PAPRH (common poppy); PAPRH, growth reduction of 50%, probit analysis, 21 days",1 g ai/ha
same,"GR80, PAPRH","PAPRH (common poppy); PAPRH, growth reduction of 80%, probit analysis, 21 days",27 g ai/ha
same,"GR90, PAPRH","PAPRH (common poppy); PAPRH, growth reduction of 90%, probit analysis, 21 days",>140 g ai/ha
